Assay results reported in patent publication US8501787B2, “Compounds for the inhibition of angiogenesis and use thereof” (Shire Orphan Therapies GmbH, priority 2004, dated 2013).
Read-outs that look alike come from different tables or passages of the source.

Columns and labels:
[1] = biological target: T1, integrin alphavbeta3 (Homo sapiens, UniProt P05106+P06756); experiment: Vitronectin binding assay, alphavbeta3 (competitive ELISA); conditions: inhibition of integrin binding to vitronectin
T1 construct: purchased Chemicon (Chemicon Europe, Germany)
Procedure: (§1) The optimal concentrations of integrin and ligand were selected from ELISA binding studies with variable concentrations of both to obtain optimal signal noise ratio for further studies. IC50 studies were performed with fixed concentration of ligand and integrin and a serial dilution of inhibitor. The plates were measured with SpectraMax Plus reader (Molecular Devices). The resulting inhibition curves were analyzed using SoftMaxPro 4.0 software, the turning point describes the IC50 value.
(§2) Fibronectin and Vitronectin were purchased from Sigma, fibrinogen from Calbiochem. (EMD Biosciences, Darmstadt, Germany) The integrin alpha5beta1 extracellular domain Fc-fusion was expressed and purified as described in (Coe, 2001, JBC, 276, 35854). Integrins alphavbeta3 and alphavbeta5 were purchased from Chemicon (Chemicon Europe, Germany) and alphaIIbbeta3 form Kordia (Kordia Life Science, Leiden, Netherlands)
(§3) Vitronectin was diluted with coating buffer (15 mM Na2CO3, 35 mM NaHCO3, pH9.6) and coated with 100 μL/well to Nunc-Immuno maxisorp plates over night at 4° C. After discarding the coating solution plates were washed 3 times with buffer 1 (25 mM Tris, pH7.6, 150 mM NaCl, 1 mM MnCl2, 1 mg/mL BSA) and blocked with 100 μL blocking buffer (3% BSA in PBS 0.1% Tween20) for 1 hour at room temperature. […] The developed colour was measured at 450 nm and analyzed as described above.

[2] = biological target: T2, integrin alphavbeta5 (Homo sapiens, UniProt P06756+P18084); experiment: Vitronectin binding assay, alphavbeta5 (competitive ELISA); conditions: inhibition of integrin binding to vitronectin
T2 construct: purchased Chemicon (Chemicon Europe, Germany)
Procedure: as §1, §2
Vitronectin was diluted with coating buffer (15 mM Na2CO3, 35 mM NaHCO3, pH9.6) and coated with 50 μL/well to Nunc-Immuno maxisorp plates over night at 4° C. […]
Plates were then washed (3 times) with buffer 2 and incubated with 50 μL of anti-alphavbeta5 antibody (Chemicon) in buffer 2 for 1 hour at RT. […] The developed colour was measured at 450 nm and analyzed as described above.

[3] = biological target: T3, integrin alphaIIbbeta3 (Homo sapiens, UniProt P05106+P08514); experiment: AlphaIIbbeta3-Fibrinogen binding assay (competitive ELISA); conditions: inhibition of integrin binding to fibrinogen; read-out: IC50 alphabIIbbeta3 in nM
T3 construct: purchased Kordia (Kordia Life Science, Leiden, Netherlands)
Procedure: as §1, §2
as §3, with “Fibrinogen” for “Vitronectin”

[4] = test system: retinal angiogenesis; experiment: Physiological retinal angiogenesis at newborn rats; type: in vivo, Sprague Dawley rats; conditions: intravitreal injection at P1 and P3, evaluated at P6, compared to vehicle treated and non-treated eye
Description: Rats are born with a completely avascular retina with physiological retinal vascular development occurring in a centripetal manner within the first two weeks of life. At postnatal day P6 approximately 65% is physiologically vascularized, with vascularization being complete by P10-14.
Sprague Dawley rats were used according to protocols which are in conformity with the Association for Research in Vision and Ophthalmology's statements on the Use of Animals in Ophthalmic Research.
Rat pups were taken from within 24 h of birth and injected intravitreally at P1 with 3 μL of selected compound solved in saline. The same injection was repeated at P3. Controls include vehicle injected, as well as uninjected eyes. The animals were sacrificed by decapitation at P6. Upon sacrifice the eyes were enucleated and fixed in 10% buffered formalin phosphate (Fisher Scientific) for 30 minutes at RT. The retinas were dissected and post-fixed in methanol for 10 minutes at −20° C. The retinas were washed with 1% Triton X-100 in PBS and incubated overnight with a 1/100 solution of TRITC conjugated lectin griffonia simplicifolia (Sigma-Aldrich) in 1% Triton X-100 in PBS. […] The percentage of total vascularized area was calculated as a percent of the vascularized area over the total surface area (Adobe-Photoshop).

[5] = biological target: T4, integrin alpha5beta1 (Homo sapiens, UniProt P05556+P08648); experiment: Alpha5beta1-Fibronectin binding assay (competitive ELISA)
T4 construct: The integrin alpha5beta1 extracellular domain Fc-fusion was expressed and purified; made in house
Procedure: as §1, §2
Fibronectin was diluted with coating buffer (15 mM Na2CO3, 35 mM NaHCO3, pH9.6) and coated with 100 μL/well to Nunc-Immuno maxisorp plates (Nalge Nunc Europe Ltd) over night at 4° C. After discarding the coating solution plates were washed 3 times with buffer 1 ([…], pH7.6, 150 mM NaCl, 1 mM […], 1 mg/mL BSA) and blocked with 100 μL blocking buffer (3% BSA in PBS 0.1% Tween20) for 1 hour at room temperature. After washing the blocked plates (3 times) with buffer 1, integrin (50 μL) and either inhibitor (serial dilution in buffer 1) or buffer 1 (50 μL) were added to the wells and incubated for one hour at RT. Plates were then washed (3 times) with buffer 1 and incubated with 100 μL of anti-human-Fc-HRP antibody conjugate (Sigma-Aldrich, Taufkirchen, Germany) in buffer 1 for 1 hour at RT. After additional washing steps (3 times) with buffer 1 50 μL of HRP substrate solution TMB (Seramun, Germany) were added to the wells. Colour development was stopped after 3-5 minutes with 50 μL 1M H2SO4. The developed colour was measured at 450 nm and analyzed as described above.

[6] = test system: K562 erythroleukemia cells; experiment: Cell adhesion assay with K562 on fibronectin; type: cell-based; conditions: at 0.5 μM; OD 570
Procedure: K562 erythroleukemia cells were obtained from the German Collection of Microorganisms and Cell Cultures GmbH (DMSZ, Braunschweig, Germany). Cells were cultured in RPMI medium containing 10% fetal calf serum, 2 mM glutamine and 100 U/mL penicillin-streptomycin (all from Biochrom AG, Germany).
The cell adhesion assays were performed in 96-well Nunc-Immuno maxisorp plates. The wells were coated for 1 h at 37° C. with 100 μL aliquots of fibronectin (10 μg/mL in phosphate-buffered-saline, 120-kDa fragment, Chemicon Europe, Germany), then blocked with 10 mg/mL heat denatured BSA in phosphate buffer for 30 min.
K562 cells were resuspended to 4×10^6 cells/mL in […], 25 mM Hepes, 2 mM EDTA, pH 7.4, and incubated for 30 min at 37° C. As a next step the cells were washed two times with the same buffer. 100 μL cell aliquots were then added to 100 μL aliquots of the same buffer with in addition 4 mM MgCl2, […] and different concentrations of compounds. These samples were preincubated for 30 min at 37° C. After that 100 μL aliquots were transferred to the microtiter wells and the cells were allowed to adhere to the substrate for 30 min at 37° C. in a humidified atmosphere of 5% CO2. […]
The absorbance of each well at 570 nm was then measured using the SpectraMax Plus reader. […]

[7] = inhibition of integrin binding to fibronectin, read-out: IC50 alpha5beta1 in nM
[8] = method of section 1.1, read-out: Group (binding activities to integrin alpha5beta1)

`Cc1cc(C)c(S(=O)(=O)N[C@@H](CNC(=O)CO[C@@H]2C[C@@H](CNc3ccccn3)N(C(=O)OCc3ccccc3)C2)C(=O)O)c(C)c1` [Compound 5, 12S,14R,30S-4-{[2-Carboxy-2-(2,4,6-trimethyl-benzenesulfonylamino)-ethylcarbamoyl]-methoxy}-2-(pyridin-2-ylaminomethyl)-pyrrolidine-1-carboxylic acid benzyl ester] showed an IC50 [1] of 11.6 nM, an IC50 [2] of 230 nM and an IC50 [3] of 9000 nM. The “retinal angiogenesis (vessel area, % of total retinal area)” value [4] was “significantly reduced”, the IC50 [5, 7] was 3.7 nM and the IC50 [5, 8] was under 10 nM.
`Cc1cc(C)c(C(=O)N[C@@H](CNC(=O)CO[C@@H]2C[C@@H](CNc3ccccn3)N(C(=O)OCc3ccccc3)C2)C(=O)O)c(C)c1` [Compound 71, 4-{[2-Carboxy-2-(2,4,6-trimethyl-benzoylamino)-ethylcarbamoyl]-methoxy}-2-(pyridin-2-ylaminomethyl)-pyrrolidine-1-carboxylic acid benzyl ester] was tested, and the IC50 [1] was about 30000 nM, the IC50 [2] was over 50000 nM and the IC50 [3] was over 50000 nM. For the same compound, the “inhibition of K562 cell adhesion to fibronectin” value [6] was “significantly active in inhibiting cell adhesion”, the IC50 [5, 7] was 2.4 nM and the IC50 [5, 8] was under 10 nM.
